Results published in PMC4403932 (Journal of Medicinal Chemistry, 2015).
Like-named read-outs stand apart in the source and are kept apart here.

Experiments:
Format in all cases: binding
[1] = molecular target: T1, BRD3(2) (Homo sapiens, UniProt Q15059); experiment: Protein stability (thermal) shift assay, BRD3(2); settings: compound 10 μM, protein 2 μM; average of triplicate
T1 construct: made in house
Protocol: (§1) Thermal melting experiments were carried out using an Mx3005p real time PCR machine (Stratagene). Proteins were buffered in 10 mM HEPES, pH 7.5, 500 mM NaCl and assayed in a 96-well plate at a final concentration of 2 μM in 20 μL volume. Compounds were added at a final concentration of 10 or 100 μM. SYPRO Orange (Molecular Probes) was added as a fluorescence probe at a dilution of 1 in 1000. Excitation and emission filters for the SYPRO-Orange dye were set to 465 and 590 nm, respectively. The temperature was raised with a step of 3 °C per minute from 25 to 96 °C, and fluorescence readings were taken at each interval. The temperature dependence of the fluorescence during the protein denaturation process was approximated by the equation [drawing 1] where ΔuG is the difference in unfolding free energy between the folded and unfolded state, R is the gas constant, and yF and yU are the fluorescence intensity of the probe in the presence of completely folded and unfolded protein, respectively.[65] The baselines of the denatured and native states were approximated by a linear fit. The observed temperature shifts, ΔTm^obs, were recorded as the difference between the transition midpoints of sample and reference wells containing protein without ligand in the same plate and determined by nonlinear least-squares fit. Temperature shifts (ΔTm^obs) for three independent measurements per proteins/compound are summarized in Supporting Information Table S1.

[2] = molecular target: T2, BRDT(2) (Homo sapiens, UniProt Q58F21); experiment: Protein stability (thermal) shift assay, BRDT(2); settings: compound 10 μM, protein 2 μM; average of triplicate; read-out: ΔTm Shift, BRDT(2)
T2 construct: made in house
Protocol: as §1

[3] = molecular target: T3, PB1(5) (Homo sapiens, UniProt Q86U86); experiment: Protein stability (thermal) shift assay, PB1(5); settings: compound 10 μM, protein 2 μM; average of triplicate
T3 construct: made in house
T3 sequence (Q86U86 653-763 limits assumed): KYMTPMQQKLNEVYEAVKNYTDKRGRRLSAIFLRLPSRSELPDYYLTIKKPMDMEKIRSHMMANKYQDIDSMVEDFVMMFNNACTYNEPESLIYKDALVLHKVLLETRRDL
Protocol: as §1

[4] = molecular target: T4, BAZ2B (Homo sapiens, UniProt Q9UIF8); experiment: Protein stability (thermal) shift assay, BAZ2B; settings: compound 10 μM, protein 2 μM; average of triplicate; read-out: ΔTm Shift, BAZ2BA
T4 construct: representative BRDs from other structural subfamilies (family I, PCAF); family III, CREBBP; family IV, BRD9; family V, BAZ2B; made in house
T4 sequence (Q9UIF8 2060-2164 limits assumed): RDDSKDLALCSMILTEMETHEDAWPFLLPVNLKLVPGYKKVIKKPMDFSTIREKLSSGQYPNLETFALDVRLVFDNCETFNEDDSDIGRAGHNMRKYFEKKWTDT
Protocol: as §1

[5] = molecular target: T5, PCAF (Homo sapiens, UniProt Q92831); experiment: Protein stability (thermal) shift assay, PCAF; settings: compound 10 μM, protein 2 μM; average of triplicate
T5 construct: representative BRDs from other structural subfamilies (family I, PCAF); made in house
T5 sequence (Q92831 723-827 limits assumed): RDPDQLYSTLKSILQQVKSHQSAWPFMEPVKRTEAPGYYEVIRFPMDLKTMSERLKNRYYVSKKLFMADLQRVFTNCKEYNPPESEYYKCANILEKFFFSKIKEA
Protocol: as §1

[6] = molecular target: T6, BRD2(2) (Homo sapiens, UniProt P25440); experiment: Protein stability (thermal) shift assay, BRD2(2); settings: compound 10 μM, protein 2 μM; average of triplicate
T6 construct: made in house
T6 sequence (P25440 344-453 limits assumed): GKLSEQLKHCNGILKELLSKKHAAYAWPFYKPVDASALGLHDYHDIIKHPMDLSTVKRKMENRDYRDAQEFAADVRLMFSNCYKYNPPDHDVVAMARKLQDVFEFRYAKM
Protocol: as §1

[7] = molecular target: T7, BRD4(2) (Homo sapiens, UniProt O60885); experiment: Protein stability (thermal) shift assay, BRD4(2); settings: compound 10 μM, protein 2 μM; average of triplicate
T7 construct: made in house
Protocol: as §1

[8] = molecular target: T8, BRD2(1) (Homo sapiens, UniProt P25440); experiment: Protein stability (thermal) shift assay, BRD2(1); settings: compound 10 μM, protein 2 μM; average of triplicate
T8 construct: Fragments were tested in a thermal shift assay against bromodomains of the BET subfamily; made in house
T8 sequence (P25440 74-180 limits assumed): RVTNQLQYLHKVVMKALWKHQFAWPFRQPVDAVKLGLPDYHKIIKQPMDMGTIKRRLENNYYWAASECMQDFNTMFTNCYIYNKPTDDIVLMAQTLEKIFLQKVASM
Protocol: as §1

[9] = molecular target: T9, BRDT(1) (Homo sapiens, UniProt Q58F21); experiment: Protein stability (thermal) shift assay, BRDT(1); settings: compound 10 μM, protein 2 μM; average of triplicate
T9 construct: made in house
Protocol: as §1

[10] = molecular target: T10, BRD3(1) (Homo sapiens, UniProt Q15059); experiment: Protein stability (thermal) shift assay, BRD3(1); settings: compound 10 μM, protein 2 μM; average of triplicate
T10 construct: Fragments were tested in a thermal shift assay against bromodomains of the BET subfamily; made in house
T10 sequence (Q15059 34-140 limits assumed): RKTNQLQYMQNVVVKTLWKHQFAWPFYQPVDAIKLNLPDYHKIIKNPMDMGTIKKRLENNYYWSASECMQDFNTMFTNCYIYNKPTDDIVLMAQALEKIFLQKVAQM
Protocol: as §1

[11] = molecular target: T11, CREBBP (Homo sapiens, UniProt Q92793); experiment: Protein stability (thermal) shift assay, CREBBP
T11 construct: small thermal shits (1.0–1.3 °C) for the bromodomain of CREBBP; made in house
T11 sequence (Q92793 1085-1192 limits assumed): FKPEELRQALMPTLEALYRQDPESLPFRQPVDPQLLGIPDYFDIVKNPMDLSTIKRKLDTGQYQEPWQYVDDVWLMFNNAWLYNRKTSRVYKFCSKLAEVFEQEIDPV
Protocol: as §1

[12] = molecular target: T12, BRD4(1) (Homo sapiens, UniProt O60885); experiment: Protein stability (thermal) shift assay, BRD4(1)
T12 construct: made in house
Protocol: as §1

[13] = molecular target: T13, BRD9 (Homo sapiens, UniProt Q9H8M2); experiment: Isothermal titration calorimetry, BRD9; settings: for Kd / ΔG / N (stoichiometry) / ΔHobs / TΔS: ITC, 15 °C; for Kd: 50 mM HEPES pH 7.5, 150 mM NaCl, triplicate, read-out: KD; for Kd / N (stoichiometry) / ΔHobs: reverse titration; for LE (ligand efficiency): LE = ΔG/N, N number of non-hydrogen atoms
T13 construct: made in house
T13 sequence (Q9H8M2 136-240 limits assumed): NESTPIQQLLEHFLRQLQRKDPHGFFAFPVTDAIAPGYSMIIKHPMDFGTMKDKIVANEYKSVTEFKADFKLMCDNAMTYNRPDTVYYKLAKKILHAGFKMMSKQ
Protocol: (§2) Experiments were carried out on an ITC200 titration microcalorimeter from MicroCal, LLC (GE Healthcare) equipped with a Washing module, with a cell volume of 0.2003 mL, and a 40 μL microsyringe. Experiments were carried out at 15 °C while stirring at 1000 rpm, in ITC buffer (50 mM HEPES, pH 7.5 (at 25 °C), 150 mM NaCl). The microsyringe was loaded with a solution of the protein sample (300−740 μM protein for BRD9 and BRD4(1), respectively, in ITC buffer) and was carefully inserted into the calorimetric cell which was filled with an amount of the ligand (0.2 mL, 20–25 μM in ITC buffer). The system was first allowed to equilibrate until the cell temperature reached 15 °C, and an additional delay of 60 s was applied. All titrations were conducted using an initial control injection of 0.3 μL followed by 38 identical injections of 1 μL with a duration of 2 s (per injection) and a spacing of 120 s between injections. The titration experiments were designed in such a fashion as to ensure complete saturation of the proteins before the final injection. The heat of dilution for the proteins was independent of their concentration and corresponded to the heat observed from the last injection, following saturation of ligand binding, thus facilitating the estimation of the baseline of each titration from the last injection. The collected data were corrected for protein heats of dilution (measured on separate experiments by titrating the proteins into ITC buffer) and deconvoluted using the MicroCal Origin software supplied with the instrument to yield enthalpies of binding (ΔH) and binding constants (KB) in the same fashion as that previously described in detail by Wiseman and co-workers.[66] Thermodynamic parameters were calculated using the basic equation of thermodynamics (ΔG = ΔH – TΔS = −RT ln KB, where ΔG, ΔH, and ΔS are the changes in free energy, enthalpy, and entropy of binding, respectively). In all cases a single binding site model was employed, supplied with the MicroCal Origin software package.

[14] = molecular target: T13, BRD9; experiment: Protein stability (thermal) shift assay, BRD9
Protocol: as §1

[15] = molecular target: T12, BRD4(1); experiment: Isothermal titration calorimetry, BRD4(1)
Protocol: as §2

[16] = test system: human bromodomains (panel); experiment: Protein stability (thermal) shift assay, whole panel of human bromodomains; settings: 10 μM compound
Protocol: as §1

[17] = thermal shift, 10 μM compound, 2 μM protein, read-out: ΔTm
[18] = compound 10 μM, protein 2 μM, average of triplicate, read-out: ΔTm Shift, BRD4(1)
[19] = compound 10 μM, protein 2 μM, average of triplicate, read-out: ΔTm Shift, CREBBP
[20] = compound 10 μM, protein 2 μM, average of triplicate, read-out: ΔTm Shift, BRD9

T1 sequence (Q15059 306-415 limits assumed): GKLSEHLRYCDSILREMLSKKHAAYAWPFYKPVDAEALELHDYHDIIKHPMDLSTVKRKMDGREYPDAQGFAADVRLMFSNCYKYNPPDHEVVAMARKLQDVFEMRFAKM

Row | ΔTm at 10 µM [1] [°C] | ΔTm at 10 µM [2] [°C] | ΔTm at 10 µM [3] [°C] | ΔTm at 10 µM [4] [°C] | ΔTm at 10 µM [5] [°C] | ΔTm at 10 µM [6] [°C] | ΔTm at 10 µM [7] [°C] | ΔTm at 10 µM [8] [°C] | ΔTm at 10 µM [9] [°C] | ΔTm at 10 µM [10] [°C] | ΔTm at 10 µM [12, 18] [°C] | Kd [13] [nM] | ΔG [13] | N (stoichiometry) [13] | ΔHobs [13] | LE (ligand efficiency) [13] | ΔTm at 10 µM [14, 17] [°C] | ΔTm at 10 µM [11, 19] [°C] | TΔS [13] | ΔTm at 10 µM [14, 20] [°C] | Compound | further results
1 | 2.5 | 1.4 | 0.236 | -0.217 | -0.7 | 1.7 | -2.2 | 0.6 | 0.6 | 1.4 | 2.3 | 641 ± 33 | –8.16 kcal/mol | 1.06 ± 0.004 | –12.71 ± 0.07 kcal/mol | 0.45 | 2.9 | – | – | – | COc1ccccc1-c1nc(N)nc2[nH]cnc12 [Compound 7a, 2-Amino-6-(2-methoxyphenyl)-9H-purine] | ΔTm at 10 µM [11, 17]: 1.5 °C
2 | 0.8 | 3 | 0.5 | 0.3 | -0.151 | 0.8 | 0.1 | 0.3 | -0.111 | 0.548 | 0.369 | 351 ± 18 | –8.52 kcal/mol | 0.97 ± 0.004 | –13.04 ± 0.07 kcal/mol | 0.45 | – | 0.356 | –4.52 kcal/mol | 2.6 | COc1ccc(F)cc1-c1nc(N)nc2[nH]cnc12 [Compound 7b, 2-Amino-6-(5-fluoro-2-methoxyphenyl)-9H-purine] | –
3 | 1.3 | 0.272 | 0.272 | 0.272 | -0.9 | 1.2 | 0.7 | 0.4 | 0.272 | 0.9 | – | 297 ± 10 | –8.59 kcal/mol | 0.98 ± 0.003 | –12.05 ± 0.04 kcal/mol | 0.45 | 3.8 | 0.272 | –3.46 kcal/mol | – | COc1ccc(Cl)cc1-c1nc(N)nc2[nH]cnc12 [Compound 7c, 2-Amino-6-(5-chloro-2-methoxyphenyl)-9H-purine] | Kd ([15]; ITC, 50 mM HEPES pH 7.5, 150 mM NaCl, 15 °C, reverse titration, triplicate, read-out: KD): 2040 ± 118 nM; TΔS ([15]; ITC, 15 °C): 1.29 kcal/mol; ΔG ([15]; ITC, 15 °C): –7.50 kcal/mol; N (stoichiometry) ([15]; ITC, 15 °C, reverse titration): 1.05 ± 0.012; ΔHobs ([15]; ITC, 15 °C, reverse titration): –6.21 ± 0.09 kcal/mol; Kd ([15]; ITC, read-out: dissociation constant): 2040 nM; LE (ligand efficiency) ([15]; LE = ΔG/N, N number of non-hydrogen atoms): 0.39; ΔTm at 10 µM [12, 17]: 1.1 °C
4 | 2.7 | 1.5 | 0.3 | -0.5 | -1.1 | 1.7 | -1.5 | 0.4 | 0.275 | 1.6 | 1.9 | – | – | – | – | – | – | 0.5 | – | 0.316 | CCOc1ccc(Br)cc1-c1nc(N)nc2[nH]cnc12 [Compound 7e, 2-Amino-6-(5-bromo-2-ethoxyphenyl)-9H-purine] | binding to BRD9 in the ΔTm assay (in words) ([14]; thermal shift, 10 μM compound): Affinity for BRD9 was lost
5 | – | – | – | – | – | – | – | – | – | – | – | – | – | – | – | – | – | – | – | – | Cn1cnc2c(NCc3ccccc3)nc(NCCO)nc21 [olomoucine, reference compound] | binding to the bromodomain panel in the ΔTm assay (in words) [16]: did not show any significant stabilization
